{"source": "DBAASP", "assay_in_all_cases": "≥ marks a high value that may be exact or a test limit, other limits are often not marked, values filed in µg/mL are converted to µM", "key": {"[1]": {"system": "Staphylococcus aureus B38302"}, "[2]": {"system": "Escherichia coli O157:H7 ATCC 43895"}, "[3]": {"system": "Cryptococcus neoformans B3501"}, "Escherichia coli U16318": {"system": "Escherichia coli U16318"}, "[4]": {"system": "Bacillus megaterium CIP 6620"}, "[5]": {"system": "Staphylococcus haemolyticus"}, "[6]": {"system": "Staphylococcus aureus SG511"}, "[7]": {"system": "Vibrio splendidus CIP 107715"}, "[8]": {"system": "Vibrio nigripulchritudo CIP 103195"}, "[9]": {"system": "Corynebacterium stationis CIP 101282"}, "[10]": {"system": "Microbacterium maritypicum CIP 105733T"}, "[11]": {"system": "Staphylococcus aureus CIP 103428"}, "[12]": {"system": "Micrococcus luteus CIP 5345"}, "Escherichia coli SBS 363": {"system": "Escherichia coli SBS 363"}, "[13]": {"system": "Bacillus megaterium ATCC 19213"}, "[14]": {"system": "Bacillus subtilis NBRC 3513"}, "[15]": {"system": "Staphylococcus aureus NBRC 12732"}, "[16]": {"system": "Staphylococcus epidermidis NBRC 12933"}, "[17]": {"system": "Candida albicans ATCC 36802"}, "[18]": {"system": "Staphylococcus aureus ATCC 29213"}, "Candida krusei IOC 4559": {"system": "Candida krusei IOC 4559"}, "[19]": {"system": "Aspergillus fumigatus IOC 4526"}, "[20]": {"system": "Pseudomonas aeruginosa ATCC 27853"}, "[21]": {"system": "Trichosporon sp. IOC 4569"}, "[22]": {"system": "Candida albicans IOC 4558"}, "[23]": {"system": "Cryptococcus neoformans IOC 4528"}, "[24]": {"system": "Cryptococcus neoformans ATCC 90112"}, "[25]": {"system": "Candida tropicalis IOC 4560"}, "[26]": {"system": "Candida glabrata IOC 4565"}, "[27]": {"system": "Trichophyton rubrum IOC 4527"}, "[28]": {"system": "Candida parapsilosis IOC 4564"}, "[29]": {"system": "Pseudomonas aeruginosa KCTC 1637"}, "[30]": {"system": "Staphylococcus aureus KCTC 1621"}, "[31]": {"system": "Bacillus megaterium KCTC 1096"}, "Proteus vulgaris": {"system": "Proteus vulgaris"}, "[32]": {"system": "Escherichia coli KCTC 1682"}, "[33]": {"system": "Bacillus subtilis KCTC 1918"}, "[34]": {"system": "Escherichia coli CCARM 1238"}, "[35]": {"system": "Candida albicans KCTC 7270"}, "[36]": {"system": "Candida albicans CCARM 14020"}, "[37]": {"system": "Trichosporon beigelii KCTC 7707"}, "[38]": {"system": "Listeria monocytogenes KCTC 3710"}, "[39]": {"system": "Candida albicans CCARM 14007"}, "[40]": {"system": "Escherichia coli CCARM 1229"}, "[41]": {"system": "Candida albicans CCARM 14001"}, "[42]": {"system": "Salmonella typhimurium KCTC 1926"}}, "data": [{"smiles": "CC(C)C[C@H](NC(=O)[C@H](C)N)C(=O)N[C@@H](Cc1c[nH]c2ccccc12)C(=O)N[C@@H](CCCCN)C(=O)N[C@H](C(=O)N[C@@H](CC(C)C)C(=O)N[C@@H](CC(C)C)C(=O)N[C@@H](CCCCN)C(=O)N[C@@H](CCCCN)C(=O)N[C@H](C(N)=O)C(C)C)[C@@H](C)O", "note": "[ALWKTLLKKV]", "values": [{"measurement": "MIC", "setting": "[1]", "value": "≥ 50", "unit": "µM"}, {"measurement": "MIC", "setting": "[2]", "value": "≥ 32", "unit": "µM"}, {"measurement": "MIC", "setting": "[3]", "value": 30, "unit": "µM"}, {"measurement": "MIC", "setting": "Escherichia coli U16318", "value": "≥ 50", "unit": "µM"}]}, {"smiles": "CC[C@H](C)[C@H](NC(=O)[C@@H]1CCCN1C(=O)CN)C(=O)N[C@@H](CCCN=C(N)N)C(=O)N[C@@H](CCCN=C(N)N)C(=O)N1CCC[C@H]1C(=O)N[C@@H](CCCCN)C(=O)N1CCC[C@H]1C(=O)N[C@@H](CCCN=C(N)N)C(=O)N1CCC[C@H]1C(=O)N[C@@H](CCCN=C(N)N)C(=O)N1CCC[C@H]1C(=O)N[C@@H](CCCN=C(N)N)C(=O)N1CCC[C@H]1C(=O)N[C@@H](CCC(=O)O)C(=O)O", "note": "[GPIRRPKPRPRPRPE]", "values": [{"measurement": "MIC", "setting": "[4]", "value": 20, "unit": "µM"}, {"measurement": "MIC", "setting": "[5]", "value": 20, "unit": "µM"}, {"measurement": "MIC", "setting": "[6]", "value": 20, "unit": "µM"}, {"measurement": "MIC", "setting": "[7]", "value": "≥ 40", "unit": "µM"}, {"measurement": "MIC", "setting": "[8]", "value": "≥ 40", "unit": "µM"}, {"measurement": "MIC", "setting": "[9]", "value": 20, "unit": "µM"}, {"measurement": "MIC", "setting": "[10]", "value": 20, "unit": "µM"}, {"measurement": "MIC", "setting": "[11]", "value": 20, "unit": "µM"}, {"measurement": "MIC", "setting": "[12]", "value": "≥ 80", "unit": "µM"}, {"measurement": "MIC", "setting": "Escherichia coli SBS 363", "value": "≥ 80", "unit": "µM"}]}, {"smiles": "CC(C)C[C@H](NC(=O)[C@@H](N)CCCCN)C(=O)NCC(=O)N[C@@H](Cc1cnc[nH]1)C(=O)N[C@@H](Cc1cnc[nH]1)C(=O)NCC(=O)N[C@@H](CCCN=C(N)N)C(=O)N[C@@H](C)C(=O)N1CCC[C@H]1C(=O)N1CCC[C@H]1C(=O)O", "note": "[KLGHHGRAPP]", "values": [{"measurement": "MIC", "setting": "[13]", "value": "≥ 128", "unit": "µM"}, {"measurement": "MIC", "setting": "[14]", "value": "≥ 128", "unit": "µM"}, {"measurement": "MIC", "setting": "[15]", "value": "≥ 128", "unit": "µM"}, {"measurement": "MIC", "setting": "[16]", "value": "≥ 128", "unit": "µM"}]}, {"smiles": "CC[C@H](C)[C@H](NC(=O)[C@H](CCCCN)NC(=O)[C@H](CCC(=O)O)NC(=O)[C@H](CCCCN)NC(=O)[C@@H]1CCCN1C(=O)[C@H](Cc1ccccc1)NC(=O)[C@H](CO)NC(=O)[C@H](Cc1cnc[nH]1)NC(=O)CNC(=O)CNC(=O)[C@H](CCCCN)NC(=O)[C@H](CCCCN)NC(=O)[C@H](Cc1cnc[nH]1)NC(=O)[C@H](CO)NC(=O)[C@H](CCC(N)=O)NC(=O)[C@@H](N)CCCCN)C(=O)N[C@@H](CO)C(=O)O", "note": "[KQSHKKGGHSFPKEKIS]", "values": [{"measurement": "MIC", "setting": "[17]", "value": "≥ 52", "unit": "µM"}, {"measurement": "MIC", "setting": "[18]", "value": "> 41.6", "unit": "µM"}, {"measurement": "MIC", "setting": "Candida krusei IOC 4559", "value": 29.4, "unit": "µM"}, {"measurement": "MIC", "setting": "[19]", "value": "≥ 52", "unit": "µM"}, {"measurement": "MIC", "setting": "[20]", "value": "> 41.6", "unit": "µM"}, {"measurement": "MIC", "setting": "[21]", "value": "≥ 41.6", "unit": "µM"}, {"measurement": "MIC", "setting": "[22]", "value": "≥ 41.6", "unit": "µM"}, {"measurement": "MIC", "setting": "[23]", "value": 4.41, "unit": "µM"}, {"measurement": "MIC", "setting": "[24]", "value": 4.41, "unit": "µM"}, {"measurement": "MIC", "setting": "[25]", "value": "≥ 41.6", "unit": "µM"}, {"measurement": "MIC", "setting": "[26]", "value": "≥ 41.6", "unit": "µM"}, {"measurement": "MIC", "setting": "[27]", "value": "≥ 52", "unit": "µM"}, {"measurement": "MIC", "setting": "[28]", "value": "≥ 41.6", "unit": "µM"}, {"measurement": "MIC", "setting": "Escherichia coli SBS 363", "value": "≥ 41.6", "unit": "µM"}]}, {"smiles": "CC[C@H](C)[C@H](NC(=O)[C@H](CCCCN)NC(=O)[C@H](CCCCN)NC(=O)[C@H](Cc1ccccc1)NC(=O)[C@H](CC(C)C)NC(=O)[C@H](CCCCN)NC(=O)[C@H](Cc1c[nH]c2ccccc12)NC(=O)[C@@H](N)CCCCN)C(=O)N1CCC[C@H]1C(=O)N[C@@H](CC(C)C)C(=O)N[C@@H](C)C(=O)N[C@@H](CCCCN)C(=O)N[C@@H](CCCCN)C(=O)N[C@@H](Cc1ccccc1)C(N)=O", "note": "[KWKLFKKIPLAKKF]", "values": [{"measurement": "MIC", "setting": "[29]", "value": 12.5, "unit": "µM"}, {"measurement": "MIC", "setting": "[30]", "value": 6.25, "unit": "µM"}, {"measurement": "MIC", "setting": "[31]", "value": 3.12, "unit": "µM"}, {"measurement": "MIC", "setting": "Proteus vulgaris", "value": 3.12, "unit": "µM"}, {"measurement": "MIC", "setting": "[32]", "value": 8.84, "unit": "µM"}, {"measurement": "MIC", "setting": "[33]", "value": 1.56, "unit": "µM"}]}, {"smiles": "NCCCC[C@H](NC(=O)[C@H](Cc1c[nH]c2ccccc12)NC(=O)[C@H](CCCCN)NC(=O)[C@H](Cc1c[nH]c2ccccc12)NC(=O)[C@H](CCCCN)NC(=O)[C@@H](N)Cc1c[nH]c2ccccc12)C(=O)O", "note": "[WKWKWK]", "values": [{"measurement": "MIC", "setting": "[29]", "value": "≥ 64", "unit": "µM"}, {"measurement": "MIC", "setting": "[30]", "value": "≥ 256", "unit": "µM"}, {"measurement": "MIC", "setting": "[34]", "value": "≥ 256", "unit": "µM"}, {"measurement": "MIC", "setting": "[35]", "value": "≥ 32", "unit": "µM"}, {"measurement": "MIC", "setting": "[36]", "value": "≥ 32", "unit": "µM"}, {"measurement": "MIC", "setting": "[37]", "value": 16, "unit": "µM"}, {"measurement": "MIC", "setting": "[32]", "value": "≥ 256", "unit": "µM"}, {"measurement": "MIC", "setting": "[38]", "value": "≥ 128", "unit": "µM"}, {"measurement": "MIC", "setting": "[33]", "value": "≥ 256", "unit": "µM"}, {"measurement": "MIC", "setting": "[39]", "value": "≥ 32", "unit": "µM"}, {"measurement": "MIC", "setting": "[40]", "value": "≥ 256", "unit": "µM"}, {"measurement": "MIC", "setting": "[41]", "value": "≥ 32", "unit": "µM"}, {"measurement": "MIC", "setting": "[42]", "value": 16, "unit": "µM"}]}]}
